Experimental data taken from patent US7071168B2, “Anti-cancer compounds and methods related thereto” (The Regents of the University of Colorado, priority 1998, dated 2006).

Legend:
[1] = system: bradykinin response of isolated guinea pig ileum; assay: Anti-bradykinin activity on isolated guinea pig ileum
How it was run: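 Bradykinin concentration-effect curves were run in the absence and presence of compound. Tissue: 25 mm terminal ileum from male Hartley guinea pigs fasted overnight, held at 1 g tension in O2/CO2-bubbled Krebs' solution after 1 h equilibration.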

[2] = system: SCLC strain SHP-77; assay: Colorimetric tetrazolium (MTT) assay for cell survival, SCLC strain SHP-77; format: cell-based, human
Experimental: In general, Anti-bradykinin activity was determined by the classical guinea pig ileum assay and on Chinese hamster ovary (CHO) cells expressing cloned human bradykinin B2 receptors. Anti-tumor activity was determined on cultured human cancer cell lines using the standard tetrazolium (MTT) assay.
Cell growth and survival were measured by a rapid colorimetric assay based on the tetrazolium salt MTT (3-(4,5-dimethylthiazol-2-yl)-2,5-diphenyl tetrazolium bromide) (Mosmann, J Immunol. Methods 65: 55–63, 1983, with minor modifications). Briefly, 1,000 normal lung fibroblasts or normal epithelial BEAS-2B cells, 1,000 or 5,000 viable non-SCLC cells or 10,000 viable SCLC cells were plated in 100 μL of growth medium in 96-well flat-bottomed microtiter plates. Cells were incubated overnight to allow recovery. Compounds to be tested were added to the cells in triplicate in a range of concentrations and the cells were incubated at 37° C., 5% CO2, with 100% humidity. Control cells were treated in the same way without antagonists. […] Plates were incubated for 4 days, allowing sufficient time for cell replication and compound-induced cell death to occur. On day 5, 25 μL of a 2 mg/mL solution of MTT (Sigma) dissolved in RMPI-1640was added to each well. The plate was incubated for 4 h at 37° C. The supernate was removed and the blue formazan complex was dissolved by adding 100 μL of 0.02 N HCl in 75% isopropanol to all wells. Absorbance was immediately determined using a scanning multiwell plate reader. B9870 caused 50% cell death at a concentration of 0.15 μM under these conditions.

[3] = isolated guinea pig ileum, pD2 of bradykinin is 7.4, higher numbers indicate higher potency
[4] = Table 1, higher numbers indicate higher potency

Compound | GPI: pA2 for bradykinin antagonist activity on isolated guinea pig ileum [1, 3] | MTT: ED50 for killing of SCLC strain SHP-77 in vitro ([2]; SCLC strain SHP-77 in vitro) | GPI: pA2 for bradykinin antagonist activity on isolated guinea pig ileum [1, 4] | MTT: ED50 for killing of SCLC strain SHP-77 in vitro ([2]; Table 1, SHP-77, MTT, 4 days) | other results
CN(C)c1ccc(C=CC(=O)NC(Cc2ccc(OCc3c(Cl)cccc3Cl)cc2)C(=O)N(C)C2CC(C)(C)NC(C)(C)C2)cc1.O=C(O)C(F)(F)F (stereo not shown) [M630, Dmac-OC2Y-Matp.TFA] | 5.0 | 1.6 µM |  |  | 
DDD-( DArg-Arg-Add-Ser-DIgl-Oic-Arg)2 [M862] |  |  | 5.6 | 1.3 µM | 
CC1(C)CC(NC(=O)C(Cc2ccc3ccccc3c2)NC(=O)c2nc(Cl)c(Cl)c(N)c2Cl)CC(C)(C)N1 (stereo not shown) [M302] | 5.2 | 3.5 µM |  |  | 
CC1(C)CC(NC(=O)[C@@H](N)Cc2ccc3ccccc3c2)CC(C)(C)N1 [M218] | 4.8 | Inact |  |  | 
CN1CCN(NC(=O)[C@H](Cc2ccc3ccccc3c2)NC(=O)C=Cc2ccc(NC(=O)CCCCCCCCCCC(=O)O)cc2)CC1 [M480-1] | 5.1 | 45 µM |  |  | 
DArg-Arg-Pro-Hyp-Gly-Igl-Ser-DIgl-Oic-Arg-Eac-Eac-DArg-Arg-Pro-Hyp-Gly-Igl-Ser-DIgl-Oic-Arg [B10088] |  |  | 7.1 | 4 µM | 
O=C(NC1CN2CCC1CC2)C(NC(=NC1CCCCC1)NC1CCCCC1)C1Cc2ccccc2C1 (stereo not shown) [M12] | 5.0 | 20 µM |  |  | 
DDD-(DArg-Arg-Aud-PaF(F5c)-Arg)2 [M728] |  |  | 5.3 | 4 µM | 
c[DArg-Arg-Add-Ser-DF5F-Oic-Arg] [M874] |  |  |  |  | GPI: pA2 for bradykinin antagonist activity on isolated guinea pig ileum ([1]; Table 3, cyclic peptides): 5.0; MTT: ED50 for killing of SCLC strain SHP-77 in vitro ([2]; Table 3, cyclic peptides): 11 µM
F5c-PaF(Ppa)-Arg [M720] |  |  | 4.8 | Inact | 
CC1=C(CC(=O)NC2CC(C)(C)NC(C)(C)C2)c2cc(F)ccc2C1=Cc1ccc([S+](C)[O-])cc1 (stereo not shown) [M654] | 4.5 | Inact |  |  | 
F5c-NMF-Arg [M686] |  |  | 5.6 | 29 µM | 
DDD-(DArg-Arg-Aud-Pac-PaF(Fbz)-Arg)2 [M734] |  |  | 5.3 | 1.8 µM | 
(Gun)2-BApG-DArg-Arg-Pro-Hyp-Gly-Igl-Ser-DIgl-Oic-Arg [B10092] |  |  | 8.7 | >20 µM | 
DDD-(Lys-Ser-DF5F-Oic-Arg)2 [M808] |  |  | 6.9 | 30 µM | 
F5c-F5F-Arg [M810] |  |  | 4.6 | 40 µM | 
DDD-(DPhe-hPhe-Arg)2 [M756] |  |  | 5.2 | 18 µM | 
CC1(C)CC(NC(=O)C(Cc2ccc(NS(C)(=O)=O)cc2)NC(=O)C=Cc2c(F)c(F)c(F)c(F)c2F)CC(C)(C)N1 (stereo not shown) [M648] | 5.0 | Inact |  |  | 
CN(C)c1ccc(C=CC(=O)NC(Cc2csc3ccccc23)C(=O)NC2CC(C)(C)NC(C)(C)C2)cc1 (stereo not shown) [M448] | 5.7 | 2.7 µM |  |  | 

Compound | GPI: pA2 for bradykinin antagonist activity on isolated guinea pig ileum [1, 3] | MTT: ED50 for killing of SCLC strain SHP-77 in vitro ([2]; SCLC strain SHP-77 in vitro) | GPI: pA2 for bradykinin antagonist activity on isolated guinea pig ileum [1, 4] | MTT: ED50 for killing of SCLC strain SHP-77 in vitro ([2]; Table 1, SHP-77, MTT, 4 days) | other results
DTP-(DArg-Arg-Eac-Ser-DF5F-Nc7G-Arg)2 [M1026] |  |  | 6.9 | 70 µM | 
CN(C)c1ccc(C=CC(=O)NC(Cc2ccc3ccccc3c2)C(=O)NC2CC(C)(C)NC(C)(C)C2)cc1 (stereo not shown) [M324] | 5.2 | 3 µM |  |  | 
DDD-(DArg-Arg-Aud-DIgl-PFF-Arg)2 [M842] |  |  | Inact | 1.4 µM | 
CC1(C)CC(NC(=O)C(Cc2ccc3ccccc3c2)NC(=O)OC(C)(C)C)CC(C)(C)N1 (stereo not shown) [M288A] | 5.2 | >85 µM |  |  | 
c[DArg-Arg-Eac-Ser-DF5F-Oic-Arg] [M872] |  |  |  |  | GPI: pA2 for bradykinin antagonist activity on isolated guinea pig ileum ([1]; Table 3, cyclic peptides): Inact; MTT: ED50 for killing of SCLC strain SHP-77 in vitro ([2]; Table 3, cyclic peptides): 2.2 µM
CC1(C)CC(NC(=O)[C@H](Cc2ccc3ccccc3c2)NC(=NC2CCCCC2)NC2CCCCC2)(C(=O)O)CC(C)(C)N1 [M244B] | 4.9 | Inact |  |  | 
F5c-DArg-Arg-Aud-DIgl-hPhe-Arg [M774] |  |  | Inact | 8 µM | 
DDD-(DArg-Arg-Aud-Ser-DIgl-Oic-Arg)2 [M858] |  |  | 6.3 | 4 µM | 
DDD-(DArg-Arg-Aud-DTic-Oic-Arg)2 [M790] |  |  | Inact | 1.7 µM | 
CC1(C)CC(NC(=O)C(Cc2ccc3ccccc3c2)NC(=O)C=Cc2ccc(C(F)(F)F)cc2)CC(C)(C)N1 (stereo not shown) [M312] | 5.5 | 3.2 µM |  |  | 
CC1(C)CC(NC(=O)C(Cc2ccc3ccccc3c2)NC(=O)COc2c(F)c(F)c(F)c(F)c2F)CC(C)(C)N1 (stereo not shown) [M568] | 5.8 | 10 µM |  |  | 
COc1cc(C=CC(=O)N[C@@H](Cc2ccc3ccccc3c2)C(=O)NC2CC(C)(C)NC(C)(C)C2)cc(OC)c1O [M274] | 4.7 | 36 µM |  |  | 
SUB-(DArg-Arg-Eac-Ser-DF5f-Nc7G-Arg)2 [M1024] |  |  | 7.2 | 14 µM | 
F5c-DArg-Arg-Aud-DTic-Oic-Arg [M788] |  |  | 5 | 9 µM | 
TDIM-(DArg-Arg-Pro-Hyp-Gly-Igl-Ser-DIgl-Oic-Arg)2 [B10100-2] |  |  | 8.0 | 1 µM | 
CC1(C)CC(NC(=O)[C@H](Cc2csc3ccccc23)NC(=N)CCCCCCCCCCCCC(=N)N[C@@H](Cc2csc3ccccc23)C(=O)NC2CC(C)(C)NC(C)(C)C2)CC(C)(C)N1 [M436-2] | 5.8 | 4.5 µM |  |  | 
DDD-(DArg-Arg-Aud-Ser-DF5F-Oic-Arg)2 [M890] |  |  | 5.5 | 1.7 µM | 
c[DArg-Arg-Pro-Hyp-Gly-Igl-Ser-DIgl-Oic-Arg] [B10302] |  |  |  |  | GPI: pA2 for bradykinin antagonist activity on isolated guinea pig ileum ([1]; Table 3, cyclic peptides): 5.2; MTT: ED50 for killing of SCLC strain SHP-77 in vitro ([2]; Table 3, cyclic peptides): Inact
CC1(C)CC(NC(=O)[C@H](Cc2c(F)c(F)c(F)c(F)c2F)NC(=NC2CCCCC2)NC2CCCCC2)CC(C)(C)N1 [M240] | 5.1 | 32 µM |  |  | 
